Reference: patent US20240423203A1, “Herbicidally Active Combination for Agricultural Applications” (priority 2021, published 2024)

Key:
Lemna minor = assay: Herbicide activity on Lemna minor in vitro, fresh weight reduction (Example 5); assay type: in vivo; details: all chemicals at 10 mg/L; 7-day exposure
Experimental: The experiment was carried out in Lemna minor growing in vitro conditions. Lemna minor (duckweed) was bought in the local market. A stock culture was maintained on modified Hoagland medium in a controlled environment. The pH of the medium was adjusted to 6.0, and the plants were grown under static conditions in a plant growth chamber at 25±2° C., light/dark regime of 16 h/8 h.
For the experiments, fronds free from any visible chlorosis were taken from the stock cultures and exposed to the appropriate treatment. For each treatment, we used six repetitions with three fronds per repetition as the initial frond number. Individual fronds were transferred to a 12 well multiplate containing Hoagland medium (control), Hoagland medium containing polyferulates, herbicides or the combination as shown in Table 8. All chemicals were evaluated at the same concentration (10 mg/L). The multiplate was covered with a transparent cover to prevent evaporation. The herbicide activity was evaluated as fresh weight reduction compared to untreated plants after one week of incubation in the described conditions.

Echinochloa colona = assay: Herbicide activity on Echinochloa colona, visual evaluation 20 DAT (Example 6); assay type: in vivo
Source text: Echinochloa colona is a cosmopolitan weed common in crops (mainly rice, maize and vegetables), gardens, roadsides, disturbed sites, waste areas and pastures. It also grows along waterways, on the margins of lakes and ponds, in swamps and wetlands, and in other damp habitats. It has the potential to invade natural areas and completely outcompete native vegetation. This weed pose a significant threat to rice productivity globally and are usually reported as noxious weeds in several economically important crops around the world. E. colona has vigorous growth traits and high seed production since each E. colona plant can produce up to 42,000 seeds. The experiment in Echinochloa colona plants was carried out in independent pots and in four replications. […] The products were applied by spraying. The herbicide activity was visually evaluated 20 days after treatment.

potato plants [1] = assay: Desiccant action on potato leaf, field plots, visual evaluation 15 DAA (Example 3); assay type: in vivo; details: for Desiccation (%): potato leaf, 15 DAA; for effect in combination with the herbicides tested (synergistic / antagonist): potato desiccation, Colby analysis
Source text: The desiccant was applied by spraying.

potato plants [2] = assay: Greenhouse potato trial: fresh weight reduction and quantum yield of PSII (Example 7); assay type: in vivo; details: for Fresh weight of the plants (% of control): 14 DAA; for Quantum yield of PSII: three days after foliar application
Experimental: The trial was carried out in a greenhouse in potato plants. The desiccant (pyraflufen-ethyl, a Protoporphyrinogen Oxidase (PPO) Inhibitor) was applied by spraying at different percentage of the recommended doses alone or combined with polyferulates. The effect of the herbicide was first evaluated by measurements of the photosynthetic capacity of treated leaves using the QY (quantum yield) three days after foliar application and the final desiccation efficiency was evaluated 14 days after treatment. The herbicide activity (desiccation efficiency) was evaluated as fresh weight reduction respect to untreated plants (control) an expressed in percentage.

potato plants [3] = assay: Desiccant action on potato leaf in function of polyferulate application timing (Example 8); assay type: in vivo; details: application rate 10.6 g a.i. ha^−1; 15 days after treatment
Source text: Polyferulates were applied the day before the desiccant spraying (D−1), in tank mix combination with the desiccant (D−0) or the day after the desiccant spraying (D+1). […] The desiccant was applied by spraying.

[4] = tested on: Tomato (Solanum lycopersicum) plants; assay: Herbicide uptake into plant foliage: distribution of pyraflufen-ethyl between leaf fractions (Example 9); assay type: in vivo; details: tomato leaves
Experimental: Tomato (Solanum lycopersicum) plants were sprayed with a diluted solution of pyraflufen-ethyl herbicide or a diluted solution of pyraflufen-ethyl herbicide combined with polyferulates. Samples of treated leaves were taken at 2 h and 24 h after treatment. An extraction procedure following successive steps was used to describe the distribution of pyraflufen-ethyl residues on and in plant leaves. Four fractions of pesticide residues were recovered: (i) the fraction of pesticide susceptible to wash-off by rain that was assumed to correspond to the water-washable fraction, (ii) the fraction of pesticide having adsorbed on the leaf surface that was assumed to correspond to the ethanol-extracted fraction, (iii) the fraction of pesticide having penetrated into the cuticle that was assumed to correspond to the hexane-extracted fraction, and (iv) the fraction of pesticide having penetrated into the foliar tissues that was assumed to correspond to the bound residues fraction.

potato plants [5] = assay: Desiccant action on potato leaf of carfentrazone-ethyl with polyferulates of different molecular weight (Example 4); details: application rate 25 g a.i. ha^−1, 15 DAA
[6] = pyraflufen-ethyl at 25% of recommended dose
[7] = pyraflufen-ethyl at 50% of recommended dose
[8] = pyraflufen-ethyl at 75% of recommended dose
[9] = pyraflufen-ethyl at 100% of recommended dose

COC(=O)c1cccc(C)c1S(=O)(=O)NC(=O)Nc1nc(OCC(F)(F)F)nc(N(C)C)n1 [Triflusulfuron-methyl]
Herbicide activity (fresh weight reduction compared to untreated plants) (Lemna minor): 34

CCOC1Oc2ccc(OS(C)(=O)=O)cc2C1(C)C (centres unmarked) [Ethofumesate]
Herbicide activity (fresh weight reduction compared to untreated plants) (Lemna minor): 0

O=C(O)CNCP(=O)(O)O [Glyphosate]
Herbicide activity (Echinochloa colona; application rate 550 g a.i. ha^−1): 59%

Diferulic acid
Desiccation (%) (potato plants [1]; application rate 12): 2%
effect in combination with the herbicides tested (synergistic / antagonist) (potato plants [1]): antagonist

CCOC(=O)COc1cc(-c2nn(C)c(OC(F)F)c2Cl)c(F)cc1Cl [Pyraflufen-ethyl]
Desiccation (%) (potato plants [1]; application rate 5.3): 60%
Desiccation (%) (potato plants [1]; application rate 10.6): 78%
Desiccation (%) (potato plants [1]; application rate 15.9): 85%
Desiccation (%) (potato plants [1]; application rate 21.2): 90%
Fresh weight of the plants (% of control) (potato plants [2]; [6]): 39 % of control
Quantum yield of PSII (potato plants [2]; [6]): 0.6
Fresh weight of the plants (% of control) (potato plants [2]; [7]): 22 % of control
Quantum yield of PSII (potato plants [2]; [7]): 0.461
Fresh weight of the plants (% of control) (potato plants [2]; [8]): 14 % of control
Quantum yield of PSII (potato plants [2]; [8]): 0.385
Fresh weight of the plants (% of control) (potato plants [2]; [9]): 10 % of control
Quantum yield of PSII (potato plants [2]; [9]): 0.335
Desiccation (%) (potato plants [3]): 79%
pyraflufen-ethyl in Bound residues fraction ([4]; 2 h after treatment): 0.16 μg/g of fresh weight leaves
pyraflufen-ethyl in Ethanol-extracted fraction ([4]; 2 h after treatment): 1.88 μg/g of fresh weight leaves
pyraflufen-ethyl in Hexane-extracted fraction ([4]; 2 h after treatment): 0.51 μg/g of fresh weight leaves
pyraflufen-ethyl in Water-washable fraction ([4]; 2 h after treatment): 3.34 μg/g of fresh weight leaves
pyraflufen-ethyl in Bound residues fraction ([4]; 24 h after treatment): 0.12 μg/g of fresh weight leaves
pyraflufen-ethyl in Ethanol-extracted fraction ([4]; 24 h after treatment): 1.59 μg/g of fresh weight leaves
pyraflufen-ethyl in Hexane-extracted fraction ([4]; 24 h after treatment): 0.94 μg/g of fresh weight leaves
pyraflufen-ethyl in Water-washable fraction ([4]; 24 h after treatment): 3.1 μg/g of fresh weight leaves

CCCCCCCCC(=O)O [Pelargonic acid]
Desiccation (%) (potato plants [1]; application rate 2720): 51%
Desiccation (%) (potato plants [1]; application rate 5440): 68%
Desiccation (%) (potato plants [1]; application rate 10880): 95%

CCCC(=NOCC(C)Oc1ccc(Cl)cc1)C1=C(O)CC(C2CCCSC2)CC1=O (centres unmarked) [Profoxydim]
Herbicide activity (fresh weight reduction compared to untreated plants) (Lemna minor): 45
Herbicide activity (Echinochloa colona; application rate 110 g a.i. ha^−1): 34%

COc1cnc(OC)n2nc(NS(=O)(=O)c3c(OCC(F)F)cccc3C(F)(F)F)nc12 [Penoxsulam]
Herbicide activity (Echinochloa colona; application rate 30 g a.i. ha^−1): 16%

CCOC(=O)C(Cl)Cc1cc(-n2nc(C)n(C(F)F)c2=O)c(F)cc1Cl (centres unmarked) [Carfentrazone-ethyl]
Desiccation (%) (potato plants [1]; application rate 30): 73%
Desiccation (%) (potato plants [1]; application rate 60): 96%
Desiccation (%) (potato plants [5]): 56%

COC(=O)Nc1cccc(OC(=O)Nc2cccc(C)c2)c1 [Phenmedipham]
Herbicide activity (fresh weight reduction compared to untreated plants) (Lemna minor): 3

COc1cc(/C=C/C(=O)O)ccc1O [Ferulic acid, (2E)-3-(4-hydroxy-3methoxyphenyl)prop-2-enoic acid]
Desiccation (%) (potato plants [1]; application rate 12): 3%
effect in combination with the herbicides tested (synergistic / antagonist) (potato plants [1]): antagonist
